Assay results: paper PMC5622171 (Nature Communications, 2017)
Entries after “also recorded” stand apart in the source; their conditions may differ.

Assays:
hCAR = molecular target: T1, hCAR (Homo sapiens, UniProt Q14994); assay: hCAR transactivation assay, inverse agonistic mode; type: cell-based
T1 construct: expressed in transfected cells; host or cells: HepG2

Hepa 1-6 cells = assay: One- and 3-day cytotoxicity assay; type: cell-based, mouse; details: Hepa 1-6, one- and 3-day
Procedure: After the plated had been incubated for 24 or 72 h at 37 °C, the cytotoxicity was determined using a CellTiter-Glo luminescent cell viability assay (Promega). […] The final DMSO concentration was 0.5% for all wells.

CYP3A4 promoter = assay: hPXR-CYP3A4-luc reporter mice (hydrodynamic injection), bioluminescence imaging; type: in vivo, mouse; details: transient transgenic mice, SPA70 150 mg kg−1, RIF 10 mg kg−1
Procedure: For the hydrodynamic injections, treatment, and in vivo imaging, in vivo delivery of the CYP3A4-luc reporter gene and the hPXR gene into mouse liver was performed using the hydrodynamic injection method described previously, [53], [54]. Briefly, by a rapid (5–10 s) tail-vein injection, each mouse received 25 μg of linearized CYP3A4-luc plasmid DNA with linearized hPXR plasmid DNA in sterile saline in a volume equal to 10% of its body weight. Imaging for luciferase activity was performed 2–8 weeks after somatic gene transfer (the bioluminescence was stable in the mice during the 2–8 weeks period). Fifteen mice were given i.p. injections of VivoGlo luciferin (Promega) (150 mg kg^−1 of body weight), anesthetized with 2.5% isoflurane, and imaged 10 min later in a Xenogen IVIS 200 system (Xenogen) to obtain a basal image. […] The mice were imaged 10 h after the last treatment in each round. The Living Image 3.2 software (Xenogen) was used to analyze the total photon flux of uniform regions of interest drawn around the liver. The CYP3A4-luc reporter activity (expressed as induction rate) was determined by using the total photon flux from the same mouse before and after treatment: induction rate = total photon flux (after treatment)/total photon flux (before treatment).

Cyp3a11 = assay: Loss of righting reflex (LORR) assay in hPXR-tg mice; type: in vivo, mouse; details: hPXR humanized mice, SPA70 200 mg kg−1 i.p., RIF 10 mg kg−1
Procedure: The LORR assay method has been described previously, by using 2,2,2-tribromoethanol, a substrate of mouse Cyp3a11 which is induced by hPXR. Mice were first injected intraperitoneally with 250 mg kg^−1 of 2,2,2-tribromoethanol, then placed on their backs under a heat lamp as soon as they lost their righting reflex. The LORR duration was defined as the time period from the start of LORR to when mice could right themselves twice within 1 min, after being placed on their backs. For each mouse, a baseline LORR duration was first established before oral administration of vehicle or compounds. […] A paired Student’s t-test was used to compare the LORR duration at baseline and after treatment. A P-value of less than 0.05 was considered to indicate a significant difference between the compared groups.

hPXR–NCoR = molecular target: T2, hPXR–NCoR (Homo sapiens, UniProt O75469); type: biochemical
T2 construct: 5 nM GST-hPXR-LBD; purchased Thermo Fisher Scientific

[1] = system: panel of seven other human nuclear receptors; assay: GeneBLAzer nuclear receptor panel, agonistic and antagonistic modes; type: cell-based
Procedure: For the GeneBLAzer NR-UAS-bla HEK 293 T assays for VDR, RXRα, RXRβ, FXR, GR, LXRα, LXRβ and PPARγ, GeneBLAzer panel nuclear receptor cells, the LiveBLAzer FRET-B/G Loading Kit with CCF4-AM, and all tissue culture reagents were purchased from Thermo Fisher Scientific. The assays were performed in accordance with the manufacturer’s instructions, with minor modifications as reported previously[48]–[50]. Briefly, positive control (as described for each assay), DMSO, and dilutions of test chemicals either alone (for agonistic assays) or in combination with an approximately EC80 concentration of a specific agonist (for antagonistic assays) were incubated with an optimized number of cells for each assay in wells of black 384-well tissue culture-treated clear-bottom plates with 30 µl of the respective assay medium in a 37 °C cell-culture incubator. A group of wells containing assay medium and DMSO, but no cells, served as a background control. The final DMSO concentration was 0.5% for all wells. After 24 h, 6 µl per well of loading solution was added, and this step was followed by an optimal period of incubation at room temperature in the dark before the fluorescent emission at 460 and 535 nm (using excitation at 400 nm) was measured with an EnVision plate reader. […]

C57BL/6 mice = assay: Animal acute toxicity study; details: oral 500 mg kg−1, days 13 and 15
hPXR [2] = molecular target: T3, hPXR (Homo sapiens, UniProt O75469); assay: hPXR transactivation assay using transient transfection in LS180 cells; type: cell-based; set-up: expressed in transfected cells; details: SPA70 10 μM, SJB7 4 μM
T3 sequence (O75469 1-434): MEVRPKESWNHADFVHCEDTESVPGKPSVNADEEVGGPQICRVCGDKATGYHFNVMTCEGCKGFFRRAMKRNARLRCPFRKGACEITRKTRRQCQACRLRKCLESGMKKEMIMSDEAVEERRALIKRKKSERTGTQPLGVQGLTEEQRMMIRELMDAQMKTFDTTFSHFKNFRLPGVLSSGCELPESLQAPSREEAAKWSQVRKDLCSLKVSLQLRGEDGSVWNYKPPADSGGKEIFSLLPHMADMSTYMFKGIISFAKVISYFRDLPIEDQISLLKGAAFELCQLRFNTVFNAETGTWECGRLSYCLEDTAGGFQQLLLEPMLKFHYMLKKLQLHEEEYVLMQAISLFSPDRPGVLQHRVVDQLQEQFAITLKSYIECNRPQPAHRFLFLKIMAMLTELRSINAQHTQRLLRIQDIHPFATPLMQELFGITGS
Procedure: The hPXR transactivation assay using transient transfection (agonist and antagonist modes) were performed as described previously. Briefly, LS180 cells were co-transfected with pGL3-CYP3A4-luc (CYP3A4-luciferase reporter) and pRL-TK (as a transfection control), together with pcDNA3, pcDNA3-hPXR, pcDNA3-hPXRM425A, or pcDNA3-hPXRF429A, by using FuGENE 6 (Roche). The pcDNA3-hPXR mutants (pcDNA3-hPXRM425A and pcDNA3-hPXRF429A) were obtained from Codex BioSolutions, Inc. (Gaithersburg, MD). Mutations were verified through nucleotide sequencing, using primers shown in Supplementary Table 3.

LS180 cells (parental) = assay: CellTiter-Glo cytotoxicity assay; details: 10 µM SPA70
[3] = system: LS180 cells with stable exogenous expression of hPXR; assay: CellTiter-Glo cytotoxicity assay; details: 10 µM SPA70
hPXR [4] = molecular target: T3, hPXR; assay: hPXR transactivation assay, HepG2 stable cell line, antagonistic mode; details: SPA70 concentration of 10 μM; all rifampicin concentrations tested

T1 sequence (Q14994 whole entry): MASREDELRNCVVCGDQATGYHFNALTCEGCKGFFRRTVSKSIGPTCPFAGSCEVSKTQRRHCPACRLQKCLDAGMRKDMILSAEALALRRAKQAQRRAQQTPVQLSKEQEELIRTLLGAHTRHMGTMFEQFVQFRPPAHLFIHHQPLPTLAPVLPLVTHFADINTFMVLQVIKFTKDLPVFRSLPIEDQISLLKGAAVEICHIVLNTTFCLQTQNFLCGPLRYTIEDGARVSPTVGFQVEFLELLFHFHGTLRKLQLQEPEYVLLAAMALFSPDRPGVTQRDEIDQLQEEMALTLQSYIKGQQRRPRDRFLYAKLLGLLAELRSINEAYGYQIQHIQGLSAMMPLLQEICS
T2 sequence (O75376 2256-2278 partner limits assumed, one chain of several): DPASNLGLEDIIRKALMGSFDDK

`COc1ccc(OC)c(-n2nnc(S(=O)(=O)c3ccc(C(C)(C)C)cc3)c2C)c1` [SPA70] was tested, and the “Effect on basal activity of CAR” value (hCAR) was “very weak CAR inverse agonist; also recorded: very weakly inhibited the basal activity”, the Cytotoxicity (Hepa 1-6 cells) was “marginal cytotoxicity” and the “Effect on rifampicin-induced activation of the CYP3A4 promoter” value (CYP3A4 promoter) was “effectively blocked the rifampicin-induced activation of the CYP3A4 promoter”. The “Effect on rifampicin-induced metabolism of 2,2,2-tribromoethanol by Cyp3a11 (LORR)” value (Cyp3a11) was “effectively blocked”, the “Effect on hPXR–NCoR interactions” value (hPXR–NCoR) was “enhanced the hPXR–NCoR interactions” and the “Agonistic or antagonistic activity against other human nuclear receptors” value [1] was “no detectable agonistic or antagonistic activity”. For the same molecule, the Mouse body weight (C57BL/6 mice) was “increase in mouse body weight”, the “Effect on activation of hPXR by SJB7” value (hPXR [2]) was “effectively block the activation of hPXR” and the “Toxicity of SPA70 alone in LS180 cells” value (LS180 cells (parental)) was “marginally toxic”. For the same molecule, the “Effect on paclitaxel sensitivity of LS180 cells with exogenous hPXR” value [3] was “re-sensitized the cells to paclitaxel” and the “Effect on rifampicin-induced hPXR activation” value (hPXR [4]) was “completely blocked the activity of rifampicin”.
